Reference: ChEMBL document CHEMBL1141597, “2-Alkyl-4-aryl-pyrimidine fused heterocycles as selective 5-HT2A antagonists” (Bioorg Med Chem Lett, 2008)
Active and inactive are the calls of the source. No cut-off for these calls is given here.

Assays:
[1] = target: T1, 5-hydroxytryptamine receptor 2A (Homo sapiens, UniProt P28223); experiment: Displacement of [3H]ketanserin from human recombinant 5HT2A receptor expressed in mouse NIH3T3 cells; assay type: cell-based
[2] = target: T2, 5-hydroxytryptamine receptor 2B (Homo sapiens, UniProt P41595); experiment: Displacement of [3H]mesulergine from human recombinant 5HT2B receptor expressed in CHO cells; assay type: cell-based
[3] = target: T2, 5-hydroxytryptamine receptor 2B; experiment: Antagonist activity at human recombinant 5HT2B receptor expressed in CHO cells assessed as increase in calcium levels; assay type: functional, cell-based
[4] = target: T1, 5-hydroxytryptamine receptor 2A; conditions: NIH3T3
Description: Antagonist activity at human recombinant 5HT2A receptor expressed in mouse NIH3T3 cells assessed as increase in calcium levels

[5] = target: T3, 5-hydroxytryptamine receptor 2C (Homo sapiens, UniProt P28335); experiment: Displacement of [3H]mesulergine from human recombinant 5HT2C receptor expressed in CHO cells; assay type: cell-based
T3 sequence (P28335 whole entry): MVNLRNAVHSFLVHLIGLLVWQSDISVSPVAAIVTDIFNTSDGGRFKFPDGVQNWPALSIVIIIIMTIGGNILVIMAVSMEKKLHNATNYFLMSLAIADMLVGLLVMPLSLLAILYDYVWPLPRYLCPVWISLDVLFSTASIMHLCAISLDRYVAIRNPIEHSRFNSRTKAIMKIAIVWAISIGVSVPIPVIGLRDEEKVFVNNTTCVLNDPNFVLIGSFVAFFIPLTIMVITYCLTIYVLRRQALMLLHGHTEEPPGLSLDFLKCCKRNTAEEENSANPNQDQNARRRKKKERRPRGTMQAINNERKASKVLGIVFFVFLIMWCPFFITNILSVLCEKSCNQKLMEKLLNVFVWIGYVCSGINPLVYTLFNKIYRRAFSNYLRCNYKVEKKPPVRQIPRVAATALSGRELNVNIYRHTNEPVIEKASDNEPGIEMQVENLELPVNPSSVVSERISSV

[6] = target: T3, 5-hydroxytryptamine receptor 2C; experiment: Binding affinity at 5HT2C receptor
[7] = target: T1, 5-hydroxytryptamine receptor 2A; experiment: Binding affinity at 5HT2A receptor
[8] = target: T2, 5-hydroxytryptamine receptor 2B; experiment: Binding affinity at 5HT2B receptor

T2 sequence (P41595 whole entry): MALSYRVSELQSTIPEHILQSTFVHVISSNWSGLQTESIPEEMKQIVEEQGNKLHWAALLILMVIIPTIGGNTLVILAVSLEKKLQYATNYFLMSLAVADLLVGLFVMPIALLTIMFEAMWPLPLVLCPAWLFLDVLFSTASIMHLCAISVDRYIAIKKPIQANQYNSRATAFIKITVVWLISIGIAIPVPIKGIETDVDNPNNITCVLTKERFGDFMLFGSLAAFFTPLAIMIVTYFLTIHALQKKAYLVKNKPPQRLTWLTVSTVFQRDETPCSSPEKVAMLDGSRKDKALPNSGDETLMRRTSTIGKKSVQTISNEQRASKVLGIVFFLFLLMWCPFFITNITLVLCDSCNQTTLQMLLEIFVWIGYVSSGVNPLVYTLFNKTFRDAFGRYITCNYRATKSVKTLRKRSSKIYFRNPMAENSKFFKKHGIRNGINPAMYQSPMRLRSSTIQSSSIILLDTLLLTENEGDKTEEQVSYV
T1 sequence (P28223 whole entry): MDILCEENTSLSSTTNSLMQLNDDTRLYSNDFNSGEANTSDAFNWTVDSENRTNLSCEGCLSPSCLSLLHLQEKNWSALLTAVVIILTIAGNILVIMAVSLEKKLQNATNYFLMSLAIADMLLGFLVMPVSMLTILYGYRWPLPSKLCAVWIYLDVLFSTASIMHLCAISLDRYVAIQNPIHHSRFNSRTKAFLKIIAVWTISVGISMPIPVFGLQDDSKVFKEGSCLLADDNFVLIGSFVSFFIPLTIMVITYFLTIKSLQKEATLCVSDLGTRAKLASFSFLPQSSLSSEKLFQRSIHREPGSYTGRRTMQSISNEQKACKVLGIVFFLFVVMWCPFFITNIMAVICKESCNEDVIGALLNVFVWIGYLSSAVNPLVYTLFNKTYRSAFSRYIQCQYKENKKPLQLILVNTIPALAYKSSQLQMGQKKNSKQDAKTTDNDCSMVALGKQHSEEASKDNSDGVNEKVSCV

| SMILES | Ki [1] [nM] | Ki [2] [nM] | Ki [5] [nM] | other results |
| --- | --- | --- | --- | --- |
| Fc1ccc(-c2nc(Cc3ccccc3)nc3c2CCNC3)cc1 | 9 | 310 |  |  |
| Fc1ccc(Cc2nc3c(c(-c4ccc(F)cc4)n2)CCNCC3)cc1 | 0.7 |  |  | Activity [3]: inactive; pKb [4]: 8.2 |
| Fc1ccc(-c2nc(C3CCC3)nc3c2CNCC3)cc1 | 11 | 210 | 410 |  |
| Fc1ccc(-c2nc(-c3ccccc3)nc3c2CNCC3)cc1 | 50 |  |  |  |
| N#Cc1ccc(-c2nc(C3CCCC3)nc3c2CCNCC3)cc1 | 34 | 20 | 460 |  |
| CN(C)CCO/N=C(/C=C/c1ccc(O)cc1)c1ccccc1F |  |  |  | Activity [3]: inactive |
| Cc1ccc(-c2nc(C3CCCC3)nc3c2CCNCC3)cc1 |  |  | 23 |  |
| Fc1ccc(-c2nc(C3CC3)nc3c2CNCC3)cc1 | 40 |  | 5000 |  |
| Fc1ccc(-c2nc(Cc3ccccc3)nc3c2CNCCC3)cc1 |  | 10000 | 5000 |  |
| Cc1nc2sccn2c(=O)c1CCN1CCC(=C(c2ccc(F)cc2)c2ccc(F)cc2)CC1 |  |  |  | Activity [3]: inactive |
| FC(F)(F)c1ccc(-c2nc(Cc3ccccc3)nc3c2CCNCC3)cc1 | 0.8 |  |  |  |
| Cc1nc2n(c(=O)c1CCN1CCC(c3noc4cc(F)ccc34)CC1)CCCC2 |  |  |  | Activity [3]: inactive |
| CC(C)(C)c1nc2c(c(-c3ccc(F)cc3)n1)CNCC2 | 5 |  | 100 |  |
| Fc1ccc(-c2nc(C3CCCC3)nc3c2CCNCC3)cc1 | 13 |  |  |  |
| COc1cccc(C(O)C2CCN(CCc3ccc(F)cc3)CC2)c1OC (single isomer, unassigned) |  |  |  | Activity [3]: inactive |
| CC(C)c1nc2c(c(-c3ccc(F)cc3)n1)CCNCC2 | 4 |  |  |  |
| Fc1ccc(-c2nc(Cc3ccccc3)nc3c2CCNCC3)cc1 | 0.6 |  |  |  |
| Fc1ccc(-c2nc(C3CCCC3)nc3c2CNCC3)cc1 | 2.2 | 220 | 110 | Activity [3]: inactive; pKb [4]: 8.1 |
| COc1ccc(-c2nc(C3CCCC3)nc3c2CCNCC3)cc1 | 11 | 4.8 | 120 |  |
| Cc1ccc(-c2nc(Cc3ccccc3)nc3c2CCNCC3)cc1 | 0.4 |  | 15 |  |
| Cc1nc2c(c(-c3ccc(Cl)cc3)n1)CCNCC2 | 1200 | 270 | 5000 |  |
| CCN(CC)c1nc2c(c(-c3ccc(C)cc3)n1)CNCC2 |  |  |  | Ki [6]: 300 nM; Ki [7]: 20 nM; Ki [8]: 70 nM |
| Fc1ccc(-c2nc(Cc3ccccc3)nc3c2CNCC3)cc1 | 20 | 2500 | 400 |  |
| Fc1ccc(-c2nc(Cc3ccccc3)nc3c2CCCNC3)cc1 | 8.8 |  | 150 |  |
| Fc1ccc(Cc2nc3c(c(-c4ccc(F)cc4)n2)CNCC3)cc1 | 13 |  |  | Activity [3]: inactive; pKb [4]: 7.1 |
